Test system: sodium channel response in hTRPV1-N1E115 cells
Assay: FLIPR membrane potential assay of sodium channel response in hTRPV1-N1E115 cells with or without heat (47° C.) activation
Assay type: cell-based
Conditions: for hTRPV1-N1E Nav 0.1 mM (% inhibition) 25° C. / hTRPV1-N1E Nav 1 mM (% inhibition) 25° C.: 25° C. (no heat activation); for hTRPV1-N1E Nav 0.1 mM (% inhibition) 47° C. / hTRPV1-N1E Nav 1 mM (% inhibition) 47° C.: 47° C. (heat activated); for IC50: read-out: hTRPV1-N1E IC50 (μM) 47° C.
Text: In one embodiment, a modified FLIPR® (Fluorometric Imaging Plate Reader) based assay system was developed which is capable of discriminating between non-specific versus hTRPV1-mediated entry of test compounds. Advantageously, the assay system utilizes heat activated opening of hTRPV1 channels followed by an assessment of internal sodium channel block. The assay allows a permanently charged compound to selectively enter through opened hTRPV1 channels and that compound's potency in inhibiting sodium channels from the cytoplasm side of the same cell can be assessed and quantified.
The test compounds are diluted in the Assay Buffer and added to each well of a specific 384-well ‘compound plate’, which serves as a source plate for compound addition using the FLIPR® platform. The concentration of compounds in the compound-plate was adjusted to achieve the desired final concentration when added to the cells in the ‘cell-plate’. After completion of the dye incubation period, the dye loaded cell-plates and the compound source plates are inserted into the FLIPR® Tetra device with a 384 FLIPR® tip box (Molecular Devices, Inc.) according to manufacturer's instructions. The compounds are robotically added to the dye loaded cell-plates using software integral to the FLIPR® Tetra instrument.
Immediately following compound addition, hTRPV1 is activated, in one of the duplicate cell plates, by heating. Specifically, entire multi-well plate containing the compound-cells mixture is incubated at 47° C. for 10 minutes, after which they are returned to room temperature (about 25° C.) for a further 30 minutes. Heat activation of hTRPV1 was omitted from the replicate cell plate which was simply maintained at room temperature for the entire 40 minutes.
A membrane potential response is elicited in the dye- and compound-loaded cells by the addition of veratridine which is a known sodium channel ‘agonist’. As illustrated in an example herein, an agonist plate containing veratridine (Sigma) is prepared in advance and is inserted into suitable devices such as, e.g., the FLIPR® TETRA device for a “2nd addition” as instructed by the manufacturer. The concentration of veratridine in the ‘agonist plate’ was adjusted to achieve a final concentration of 100 μM when added to the cells in the cell-plate. Final concentrations of veratridine greater or lesser than 100 μM may also be used but the signal measured by the FLIPR® TETRA device or another suitable device may vary accordingly.
The exposure of the cells in the cell-plate to veratridine induces sodium channels in the cells to open and the resulting ion flux produces a membrane potential depolarization that is detected as a fluorescence signal by the FLIPR® Tetra Device. The activity of test compounds is determined by their ability to attenuate the veratridine-induced fluorescence signal, the most promising compounds are those that show an enhanced activity in the heat-activated cell plate over the non-heat-activated cell plate. This differential activity reflects enhanced compound uptake via the heat activated and open hTRPV1 channels and rests on the fact that sodium channel block requires test compounds to act from the cytoplasmic side of the cell membrane.
In vitro assays were developed for assessing the inhibition of sodium channel response with compounds following stimulation by heat (47° C.) in cells expressing hTRPV1.
(v) Membrane potential Assay to Assess Sodium Channel Function in hTRPV1-Expressing Cells • Cells were plated at 5000 per 50 μL [DMEM+10% FBS+300 μg/mL H\hygromycin] per well, in a 384 clear bottom poly-D-lysine coated plate and incubated at 37° C. and 5% CO2 for 48 hours. On the day of the assay, media were discarded gently and 30 μL of the dye [FMP blue dye was prepared in assay buffer] per well was added and dye-loading was allowed to proceed for 20 min at room temperature. […]

Row | IC50 (47° C.) | SMILES | hTRPV1-N1E Nav (% inhibition) 25° C., 0.5 mM (0.5 mM, 25° C.) | hTRPV1-N1E Nav (% inhibition) 47° C., 0.5 mM (0.5 mM, 47° C.) | hTRPV1-N1E Nav (% inhibition) 25° C., 5 mM (5 mM, 25° C.) | hTRPV1-N1E Nav (% inhibition) 47° C., 5 mM (5 mM, 47° C.) | hTRPV1-N1E Nav 0.1 mM (% inhibition) 25° C. | hTRPV1-N1E Nav 0.1 mM (% inhibition) 47° C. | hTRPV1-N1E Nav 1 mM (% inhibition) 25° C. | hTRPV1-N1E Nav 1 mM (% inhibition) 47° C.
1 |  | CC[N+](CC)(CC(C)OC(=O)c1ccccc1)C1CCCCC1.[Cl-] (stereo not shown) [Example 3, N-[2-(benzoyloxy)propyl]-N,N-diethylcyclohexanaminium chloride] | 14 (N = 2, % | 19 (N = 2, % | 52 (N = 2, % | 67 (N = 2, % |  |  |  | 
2 | 10 to 100 µM | CC(C[N+](C)(C)C1CCCCC1)OC(=O)c1ccc(C(C)C)cc1.[I-] (stereo not shown) [Example 4, N-[2-((4-isopropylbenzoyl)oxy)propyl]-N,N-dimethylcyclohexanaminium iodide] |  |  |  |  | 24 (N = 4) % | 86 (N = 4) % |  | 
3 |  | COc1cccc(OC)c1C(=O)OC(C)C[N+](C)(C)C1CCCCC1.[I-] (stereo not shown) [Example 7, N-[2-((2,6-Dimethoxybenzoyl)oxy)propyl]-N,N-dimethyl-cyclohexanaminium iodide] |  |  |  |  | 1 (N = 4) % | 28 (N = 4) % | 0 (N = 4) % | 70 (N = 4) %
4 |  | CC(C[N+](C)(C)C1CCCCC1)OC(=O)c1ccccc1F.[I-] (stereo not shown) [Example 8, N-[2-((2-Fluorobenzoyl)oxy)propyl]-N,N-dimethyl-cyclohexanaminium iodide] |  |  |  |  | 14 (N = 4) % | 38 (N = 4) % | 22 (N = 4) % | 53 (N = 4) %
5 |  | CC(C[N+](C)(C)C1CCCCC1)OC(=O)c1ccccc1Cl.[I-] (stereo not shown) [Example 9, N-[2-((2-Chlorobenzoyl)oxy)propyl]-N,N-dimethyl-cyclohexanaminium iodide] |  |  |  |  | 16 (N = 4) % | 67 (N = 4) % |  | 
6 | 100 to 1000 µM | CC(C[N+](C)(C)C1CCCCC1)OC(=O)c1ccc(Cl)cc1Cl.[I-] (stereo not shown) [Example 10, N-[2-((2,4-Dichlorobenzoyl)oxy)propyl]-N,N-dimethyl-cyclohexanaminium iodide] |  |  |  |  | 10 (N = 4) % | 59 (N = 4) % | 61 (N = 4) % | 95 (N = 4) %
7 | 100 to 1000 µM | Cc1ccccc1C(=O)OC(C)C[N+](C)(C)C1CCCCC1.[I-] (stereo not shown) [Example 11, N,N-Dimethyl-N-[2-((2-methylbenzoyl)oxy)propyl] cyclohexanaminium iodide] |  |  |  |  | 16 (N = 4) % | 40 (N = 4) % |  | 
8 | 10 to 100 µM | CC(C[N+](C)(C)C1CCCCC1)OC(=O)c1ccc(Cl)cc1.[I-] (stereo not shown) [Example 13, N-[2-((4-Chlorobenzoyl)oxy)propyl]-N,N-dimethyl-cyclohexanaminium iodide] |  |  |  |  | 0 (N = 4) % | 44 (N = 4) % | 51 (N = 4) % | 89 (N = 4) %
9 |  | CC(C[N+](C)(C)C1CCCCC1)OC(=O)c1cccc(F)c1.[I-] (stereo not shown) [Example 14, N-[2-((3-Fluorobenzoyl)oxy)propyl]-N,N-dimethyl-cyclohexanaminium iodide] |  |  |  |  | 0 (N = 4) % | 31 (N = 4) % | 10 (N = 4) % | 66 (N = 4) %

Reference: patent US9180115B2, “Cyclohexylamines” (Asana Biosciences, LLC, priority 2011, dated 2015)
